Results taken from patent publication US10781215B2, “Heterobicyclic compounds useful as modulators of IL-12, IL-23 and/or IFNα responses” (BRISTOL-MYERS SQUIBB COMPANY, priority 2016, dated 2020).

Columns and labels:
[1] = tested on: IFNα stimulated Kit225 T cells (STAT-dependent luciferase reporter); test: Kit225 T cell assay, IFNα stimulated STAT-dependent luciferase reporter; format: cell-based; settings: 200 U/mL human recombinant IFNα, 5-6 hours
Method: (§1) Kit225 T cells with a stably-integrated STAT-dependent luciferase reporter were plated in RPMI (Gibco) containing 10% heat-inactivated FBS (Gibco) and 100 U/mL PenStrep (Gibco). The cells were then stimulated with either 20 ng/mL human recombinant IL-23 or 200 U/mL human recombinant IFNα (PBL InterferonSource) for 5-6 hours. Luciferase expression was measured using the STEADY-GLO® Luciferase Assay System (Promega) according to the manufacturer's instructions. Inhibition data were calculated by comparison to no inhibitor control wells for 0% inhibition and non-stimulated control wells for 100% inhibition. Dose response curves were generated to determine the concentration required to inhibit 50% of cellular response (IC50) as derived by non-linear regression analysis.

[2] = tested on: IL-23 stimulated Kit225 T cells (STAT-dependent luciferase reporter); test: Kit225 T cell assay, IL-23 stimulated STAT-dependent luciferase reporter; format: cell-based; settings: 20 ng/mL human recombinant IL-23, 5-6 hours
Method: as §1

[3] = target: T1, recombinant human His-tagged Tyk2 pseudokinase domain (His-TVMV-Tyk2, 575-869) (Homo sapiens, UniProt P29597); test: Probe displacement assay (HTRF format); format: binding; settings: fluorescein labeled probe, Tyk2 pseudokinase domain 0.5 nM
T1 construct: made in house
T1 sequence (P29597 with tags, fused parts or gaps): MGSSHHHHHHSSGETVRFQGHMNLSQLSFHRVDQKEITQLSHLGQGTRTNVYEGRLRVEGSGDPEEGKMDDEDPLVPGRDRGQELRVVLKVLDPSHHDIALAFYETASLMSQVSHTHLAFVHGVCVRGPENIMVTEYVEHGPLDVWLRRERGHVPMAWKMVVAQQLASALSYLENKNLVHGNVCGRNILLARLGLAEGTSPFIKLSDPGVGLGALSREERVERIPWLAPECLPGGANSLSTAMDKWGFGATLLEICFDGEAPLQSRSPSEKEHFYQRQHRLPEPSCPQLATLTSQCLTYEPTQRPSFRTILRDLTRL
Method: To 10 μL 26 nM fluorescein labeled probe plus 0.2 nM anti-6×His-terbium labeled antibody (Medarex, labeled by Cisbio) in assay buffer (20 mM Hepes pH 7.5, 150 mM NaCl, 10 mM MgCl2, 2 mM DTT, 50 μg/mL BSA, and 0.015% Brij 35) was added 10 μL recombinant human His-tagged Tyk2 pseudokinase domain (His-TVMV-Tyk2, 575-869) to a final concentration of 0.5 nM. After 1 h at room temperature, the HTRF signal (ratio of fluorescence intensities at emission wavelengths for fluorescein acceptor at 520 nm and terbium donor at 495 nm) was measured on an Envision Plate Reader. Percent inhibition was calculated by comparison to a control without inhibitor and a control without protein. Dose response curves were generated to determine the concentration required for inhibiting 50% of the HTRF signal (EC50).

SMILES	IC50 [1]	IC50 [2]	EC50 [3]
Cc1ccnc(Nc2cc(Nc3ncccc3S(C)(=O)=O)c3nc(C)[nH]c3n2)c1 [Example 46, 7-N-(3-methanesulfonylpyridin-2-yl)-2-methyl-5-N-(4-methylpyridin-2-yl)-3H-imidazo[4,5-b]pyridine-5,7-diamine]	323 nM	2980 nM	1.8 nM
Cc1nc2c(Nc3ncccc3S(C)(=O)=O)cc(NC(=O)C3CC3)nc2[nH]1 [Example 47, N-{7-[(3-methanesulfonylpyridin-2-yl)amino]-2-methyl-3H-imidazo[4,5-b]pyridin-5-yl}cyclopropanecarboxamide]	403 nM	698 nM	0.4 nM
Cc1cnc(Nc2cc(Nc3ncccc3S(C)(=O)=O)c3nc(C)[nH]c3n2)cn1 [Example 48, 7-N-(3-methanesulfonylpyridin-2-yl)-2-methyl-5-N-(5-methylpyrazin-2-yl)-3H-imidazo[4,5-b]pyridine-5,7-diamine]	307 nM	742 nM	0.6 nM
Cc1cccc(Nc2cc(Nc3ncccc3S(C)(=O)=O)c3nc(C)[nH]c3n2)n1 [Example 49, 7-N-(3-methanesulfonylpyridin-2-yl)-2-methyl-5-N-(6-methylpyridin-2-yl)-3H-imidazo[4,5-b]pyridine-5,7-diamine]	98 nM	107 nM	0.7 nM
Cc1nc2c(Nc3ncccc3S(C)(=O)=O)cc(Nc3ccc(N4CCOCC4)cn3)nc2[nH]1 [Example 50, 7-N-(3-methanesulfonylpyridin-2-yl)-2-methyl-5-N-[5-(morpholin-4-yl)pyridin-2-yl]-3H-imidazo[4,5-b]pyridine-5,7-diamine]	267 nM	367 nM	1.1 nM
